The record followed here is patent publication US20100129317A1 (priority 2006, published 2010).

One data set relates to Hantaan virus (HTNV). It counts as cell-based.
For data set [1], the system named is Crimean Congo Hemorraghic fever virus (CCHFV). Type of data set: cell-based.
In data set [2] the target is T1, Human adenosine kinase (Homo sapiens, UniProt P55263). Nature of the data set: Adenosine kinase activity with selected nucleoside analogs (conversion to 5'-monophosphate, HPLC). It counts as biochemical. To be noted: 100 μM of each compound and ATP, 37° C., conversion to 5'-monophosphate by HPLC.
T1 sequence (P55263 whole entry): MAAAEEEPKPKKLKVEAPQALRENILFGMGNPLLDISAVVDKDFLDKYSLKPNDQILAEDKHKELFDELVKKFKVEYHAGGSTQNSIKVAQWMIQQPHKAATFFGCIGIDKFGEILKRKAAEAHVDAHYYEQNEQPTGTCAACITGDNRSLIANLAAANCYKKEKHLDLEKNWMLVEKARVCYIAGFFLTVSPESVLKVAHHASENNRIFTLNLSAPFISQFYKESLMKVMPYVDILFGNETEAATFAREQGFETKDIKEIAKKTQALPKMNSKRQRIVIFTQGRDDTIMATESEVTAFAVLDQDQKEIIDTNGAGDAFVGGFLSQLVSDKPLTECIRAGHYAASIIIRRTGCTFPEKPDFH
In the next data set the test system is human CEM cells. The data set can be described thus: Metabolism to phosphorylated intracellular metabolites in human cells.
In data set [3] the target is T1, Human adenosine kinase. Nature of the data set: Radiolabeled TA-18 as substrate for human adenosine kinase. The note with it: radiolabeled compound, 10 μM. Type of data set: biochemical.
For data set [4], the system named is GTP levels in human cells. Nature of the data set: Intracellular GTP levels in human cells. The note with it: for effect of treatment on GTP levels in human cells: 10 μM. It counts as cell-based.
For another data set, the system named is influenza A/Udorn/72. It counts as cell-based, Influenza A H3N2.

“Also recorded” adds a separate entry of the source.

Consider `O=c1c2ncn([C@@H]3O[C@H](CO)[C@@H](O)[C@H]3O)c2ncn1-c1cccc(F)c1` [IA-3, N^1-(3-fluorophenyl)-inosine], for which the “antiviral activity against HTNV” value in the data set on Hantaan virus (HTNV) is on record as “showed antiviral activity”.
Regarding `Nc1c(C(=O)Nc2cccc(F)c2)ncn1[C@@H]1O[C@H](CO)C(O)C1O` (stereo partly drawn) [RN-3, 5-amino-4-N-3-fluorophenylcarboxamide-1-β-D-ribofuranosyl-1H-imidazole], the “antiviral activity against HTNV” value in the data set with Hantaan virus (HTNV) is recorded as “showed activity”.
As to `O=[N+]([O-])c1ncn([C@@H]2O[C@H](CO)C(O)[C@@H]2O)n1` (some centres unmarked) [TA-1], in data set [1], the “antiviral activity against CCHFV” value is recorded as “showed antiviral activity”.
In the case of `CC(=O)c1ncn([C@@H]2O[C@H](CO)[C@@H](O)[C@H]2O)n1` [TA-13, 1-(1-β-D-ribofuranosyl-[1,2,4]triazole-3-yl)-ethanone], the “Activity as a percent of ribavirin” value at Human adenosine kinase [2] is 8% of ribavirin.
With `OC[C@H]1O[C@@H](n2cnc(C(O)c3ccccc3)n2)C(O)[C@H]1O` (stereo partly drawn) [TA-14, 1-(1-β-D-ribofuranosyl-[1,2,4]triazol-3-yl)-phenylmethanol], the “antiviral activity against HTNV” value in the data set with Hantaan virus (HTNV) was “showed antiviral activity”.
Regarding `C#Cc1ncn([C@@H]2O[C@H](CO)[C@@H](O)[C@H]2O)n1` [TA-18, 3-ethynyl-1-(β-D-ribofuranosyl)-[1,2,4]triazole], at Human adenosine kinase [2], the “Activity as a percent of ribavirin” value is 25% of ribavirin. Further, the “antiviral activity against CCHFV” value in data set [1] is “showed antiviral activity”. Also, the “antiviral activity against HTNV” value with Hantaan virus (HTNV) is “showed antiviral activity”. Also, the “conversion to phosphorylated metabolites in human cells” value with human CEM cells (human CEM cells, 10 μM) is reported as “converted to phosphorylated metabolites”. Further, the “substrate for human adenosine kinase (radiolabeled TA-18)” value at Human adenosine kinase [3] is “it is a substrate for human adenosine kinase; also recorded: subs ate for human adenosine kinase”. Moreover, the “effect of treatment on GTP levels in human cells” value in data set [4] is reported as “decline in GTP levels”. Also, the “potency of metabolites in reducing GTP levels compared with ribavirin metabolites” value in data set [4] (inferred from metabolite amounts and GTP decline) is on record as “more potent in reducing GTP levels than the ribavirin metabolites”. For the same compound, the “antiviral activity against influenza” value with influenza A/Udorn/72 is “showed antiviral activity”.
In the case of `NC(=O)CC(O)c1ncn([C@@H]2O[C@H](CO)[C@@H](O)[C@H]2O)n1` (stereo partly drawn) [TA-20, 3-(1-β-D-ribofuranosyl-[1,2,4]triazol-3-yl)-3-hydroxypropionamide], the “Activity as a percent of ribavirin” value at Human adenosine kinase [2] is 5% of ribavirin.
For the compound `Nc1ncnc2c1c(I)cn2[C@@H]1O[C@H](CO)[C@@H](O)[C@H]1O` [iodotubercidin, reference compound], in the data set with human CEM cells (human cells), the “effect of adenosine kinase inhibition with iodotubercidin on the metabolism of TA-18” value is given as “inhibited the metabolism of TA-18”. Moreover, in data set [4], the “effect of adenosine kinase inhibition with iodotubercidin on the decline in GTP levels caused by TA-18” value was “prevented the decline in GTP levels caused by TA-18”.
As for `NC(=O)c1ncn([C@@H]2O[C@H](CO)[C@@H](O)[C@H]2O)n1` [ribavirin, reference compound], the “effect of treatment on GTP levels in human cells” value in data set [4] is reported as “decrease in GTP levels”.
